# From patent publication US8691840B2, “N-biarylamides” (Bayer Intellectual Property GmbH, priority 2003, dated 2014)
# Where a name gives a salt, the structure may show the parent alone.
# Target: α7 nAChR (Rattus norvegicus (Rat), UniProt Q05941)
# Assay: [3H]-methyllycaconitine binding assay, rat brain membranes
# Settings: inhibition of [3H]-methyllycaconitine binding to rat brain membranes; Ki=IC50/(1+L/KD)
# Protocol: 1. Determination of the Affinity of Test Substances for α7 nAChR by Inhibition of [^3H]-methyllycaconitine Binding to Rat Brain Membranes
# The [^3H]-methyllycaconitine binding assay is a modification of the method described by Davies et al. (Neuropharmacol. 1999, 38, 679-690).
# Rat brain tissue (hippocampus or whole brain) is homogenized in homogenization buffer (10% w/v) (0.32 M sucrose, 1 mM EDTA, 0.1 mM phenylmethylsulfonyl fluoride (PMSF), 0.01% (w/v) NaN3, pH 7.4, 4° C.) at 600 rpm in a glass homogenizer. The homogenate is centrifuged (1000×g, 4° C., 10 min) and the supernatant is removed. The pellet is resuspended (20% w/v) and the suspension is centrifuged (1000×g, 4° C., 10 min) The two supernatants are combined and centrifuged (15 000×g, 4° C., 30 min). This pellet is referred to as the P2 fraction.
# The P2 pellet is washed twice with binding buffer (50 mM Tris-HCl, 1 mM MgCl2, 120 mM NaCl, 5 mM KCl, 2 mM CaCl2, pH 7.4), and centrifuged (15 000×g, 4° C., 30 min).
# The P2 membranes are resuspended in binding buffer and incubated in a volume of 250 μl (amount of membrane protein 0.1-0.5 mg) in the presence of 1-5 nM [^3H]-methyllycaconitine, 0.1% (w/v) BSA (bovine serum albumin) and various concentrations of the test substance at 21° C. for 2.5 h. The non-specific binding is determined by incubation in the presence of 1 μM […]-bungarotoxin or 100 μM nicotine or 10 μM MLA (methyllycaconitine).
# The incubation is stopped by adding 4 ml of PBS (20 mM Na2HPO4, 5 mM KH2PO4, 150 mM NaCl, pH 7.4, 4° C.) and filtering through type A/E glass fiber filters (Gelman Sciences) which have previously been placed in 0.3% (v/v) polyethyleneimine (PEI) for 3 h. The filters are washed twice with 4 ml of PBS (4° C.), and the bound radioactivity is determined by scintillation measurement. All the assays are carried out in triplicate. The dissociation constant Ki of the test substance was determined from the IC50 of the compounds (concentration of the test substance at which 50% of the ligand bound to the receptor are displaced), the dissociation constant KD and the concentration L of [^3H]methyllycaconitine (Ki=IC50/(1+L/KD)).
# Sequence of α7 nAChR (Q05941 23-502 limits assumed): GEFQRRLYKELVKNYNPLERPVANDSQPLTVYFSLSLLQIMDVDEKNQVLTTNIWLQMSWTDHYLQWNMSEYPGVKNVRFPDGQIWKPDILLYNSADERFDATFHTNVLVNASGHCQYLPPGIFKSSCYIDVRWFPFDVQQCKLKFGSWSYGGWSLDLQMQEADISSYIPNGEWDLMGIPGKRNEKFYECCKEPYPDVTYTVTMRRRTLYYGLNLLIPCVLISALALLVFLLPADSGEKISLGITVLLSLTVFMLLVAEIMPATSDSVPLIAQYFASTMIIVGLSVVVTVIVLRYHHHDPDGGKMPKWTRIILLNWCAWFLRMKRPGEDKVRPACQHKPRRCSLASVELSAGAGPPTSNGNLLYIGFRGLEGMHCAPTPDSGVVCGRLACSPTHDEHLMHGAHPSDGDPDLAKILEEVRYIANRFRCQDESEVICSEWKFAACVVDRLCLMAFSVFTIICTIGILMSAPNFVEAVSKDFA
row,Structure (SMILES),Ki [nM]
1,"CS(=O)(=O)Nc1ccc(-c2ccc(NC(=O)[C@H]3CN4CCC3CC4)cc2)cc1 [Example 2, (3R)-N-{4′-[(Methylsulfonyl)amino]biphenyl-4-yl}quinuclidine-3-carboxamide hydrochloride]",2
2,"O=C(Nc1ccc(-c2ccc(NS(=O)(=O)c3ccccc3)cc2)cc1)[C@H]1CN2CCC1CC2 [Example 5, (3R)—N-{4′-[(Phenylsulfonyl)amino]biphenyl-4-yl}quinuclidine-3-carboxamide hydrochloride]",< 1
3,"NS(=O)(=O)c1ccc(-c2ccc(NC(=O)[C@H]3CN4CCC3CC4)cc2)cc1 [Example 7, (3R)—N-[4′-(Aminosulfonyl)biphenyl-4-yl]quinuclidine-3-carboxamide hydrochloride]",< 1
4,"O=C(Nc1ccc(-c2ccc(NC(=O)[C@H]3CN4CCC3CC4)cc2)cc1)NC1CCCC1 [Example 11, (3R)—N-(4′-{[(Cyclopentylamino)carbonyl]amino}biphenyl-4-yl)quinuclidine-3-carboxamide hydrochloride]",16
5,"O=C(Nc1ccc(-c2ccc(NC(=O)[C@H]3CN4CCC3CC4)cc2)cc1)c1cccc(F)c1 [Example 15, (3R)—N-{4′-[(3-Fluorobenzoyl)amino]biphenyl-4-yl}quinuclidine-3-carboxamide hydrochloride]",27
